Literature values, collected in article PMC3889329 (Diabetes Therapy, 2013).

Tested on: healthy subjects
Details: cited from earlier work

Compound	Maximal UGE (200–800 mg qd, healthy subjects)	Maximum UGE (multiple doses of 5–600 mg, healthy volunteers)
Cc1ccc([C@@H]2O[C@H](CO)[C@@H](O)[C@H](O)[C@H]2O)cc1Cc1ccc(-c2ccc(F)cc2)s1 [Canagliflozin]	70 g/day	–
OC[C@H]1O[C@@H](c2ccc(F)c(Cc3cc4ccccc4s3)c2)[C@H](O)[C@@H](O)[C@@H]1O [Ipragliflozin]	–	approximately 59 g/day
